The target in the test is T1, human TRPV4 (Homo sapiens, UniProt Q9HBA0).
T1 construct: expressed in transfected cells; host or cells: HEK-293-MSR-II cells transduced with 1% BacMam virus
Kind of test: Ligand-gated assay (Fluo4 calcium, FLIPR; inhibition of agonist-induced activation). It is filed as cell-based. The following applies: HEK-293-MSR-II cells transduced with BacMam human TRPV4; agonist at EC80. The procedure:
TRP channel activation/opening results in an influx of divalent and monovalent cations including calcium. The resulting changes in intracellular calcium were monitored using a calcium selective fluorescent dye Fluo4 (MDS Analytical Technologies). Dye loaded cells were initially exposed to test compound to verify a lack of agonist activity. Cells were subsequently activated by addition of an agonist and inhibition of the agonist-induced activation was recorded. Human embryonic kidney 293 cells stably expressing the macrophage scavenger receptor class II (HEK-293-MSR-II) and transduced with 1% BacMam (J. P. Condreay, S. M. Witherspoon, W. C. Clay and T. A. Kost, Proc Natl Acad Sci 96 (1999), pp. 127-132) virus expressing the human TRPV4 gene were plated at 15000 cells/well in a volume of 50 μL in a 384 well poly-D lysine coated plate. Cells were incubated for 24 hours at 37 degrees and 5% CO2. Media was then aspirated using a Tecan Plate-washer and replaced with 20 μL of dye loading buffer: HBSS, 500 uM Brilliant Black (MDS Analytical Technologies), 2 uM Fluo-4. Dye loaded plates were then incubated in the dark at room temperature for 1-1.5 hours. 10 μL of test compound diluted in HBSS (HBSS with 1.5 mM Calcium Chloride, 1.5 mM Magnesium Chloride and 10 mM HEPES. pH 7.4), +0.01% Chaps was added to the plate, incubated for 10 min at room temperature in the dark and then 10 μL of agonist was added at a final concentration equal to the agonist EC80. Calcium release was measured using the FLIPRtetra (MDS Analytical Technologies) or FLIPR384 (MDS Analytical Technologies).
IC50 between 0.1-10 nM (+++), >10-50 nM (++), >50-500 nM (+).

T1 sequence (Q9HBA0 whole entry): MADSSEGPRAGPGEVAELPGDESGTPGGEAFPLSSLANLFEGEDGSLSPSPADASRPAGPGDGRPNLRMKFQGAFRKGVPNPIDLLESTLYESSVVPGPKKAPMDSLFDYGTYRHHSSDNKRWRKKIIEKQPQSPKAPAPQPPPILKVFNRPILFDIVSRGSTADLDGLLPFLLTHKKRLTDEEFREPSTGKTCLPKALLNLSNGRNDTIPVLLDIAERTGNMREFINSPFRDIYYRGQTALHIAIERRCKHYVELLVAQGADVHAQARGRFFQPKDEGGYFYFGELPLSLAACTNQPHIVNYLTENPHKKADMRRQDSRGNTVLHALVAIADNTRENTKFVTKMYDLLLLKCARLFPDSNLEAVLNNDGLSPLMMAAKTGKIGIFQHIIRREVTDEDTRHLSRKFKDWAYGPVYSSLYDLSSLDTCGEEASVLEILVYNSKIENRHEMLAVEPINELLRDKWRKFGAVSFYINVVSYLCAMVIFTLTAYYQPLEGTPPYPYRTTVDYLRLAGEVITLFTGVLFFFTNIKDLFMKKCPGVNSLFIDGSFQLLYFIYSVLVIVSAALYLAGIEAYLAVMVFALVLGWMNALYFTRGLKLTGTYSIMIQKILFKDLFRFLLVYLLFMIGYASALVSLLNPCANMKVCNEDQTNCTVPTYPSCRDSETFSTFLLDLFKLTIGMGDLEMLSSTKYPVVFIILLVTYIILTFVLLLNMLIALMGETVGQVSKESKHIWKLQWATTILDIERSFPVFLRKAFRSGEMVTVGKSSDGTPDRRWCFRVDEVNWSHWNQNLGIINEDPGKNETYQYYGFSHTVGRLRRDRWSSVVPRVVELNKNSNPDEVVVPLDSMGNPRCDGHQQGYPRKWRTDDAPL

With `Cc1cc(Cl)ncc1N1C[C@@]2(CCC[C@H](Cn3cnc4ccc(C#N)cc43)C2)OC1=O` [Example 120, 1-(((5S,7S)-3-(6-chloro-4-methylpyridin-3-yl)-2-oxo-1-oxa-3-azaspiro[4.5]decan-7-yl)methyl)-1H-benzo[d]imidazole-6-carbonitrile], the IC50 is 0.1 to 10 nM. In the case of `CC(C)(C)c1coc(N2C[C@@]3(CCC[C@](C)(Cn4cnc5ccc(C#N)cc54)C3)OC2=O)n1` [Example 42, 1-(((5S,7S)-3-(4-(tert-butyl)oxazol-2-yl)-7-methyl-2-oxo-1-oxa-3-azaspiro[4.5]decan-7-yl)methyl)-1H-benzo[d]imidazole-6-carbonitrile] it was 10 to 50 nM. In the case of `C[C@]1(Cn2cnc3ccc(C#N)cc32)CCC[C@@]2(CN(Cc3cn(-c4ccccc4)nn3)C(=O)O2)C1` [Example 8, 1-({(5S,7S)-7-Methyl-2-oxo-3-[(1-phenyl-1H-1,2,3-triazol-4-yl)methyl]-1-oxa-3-azaspiro[4.5]dec-7-yl}methyl)-1H-benzimidazole-6-carbonitrile] it was 0.1 to 10 nM; in that of `C[C@]1(Cn2cnc3ccc(C#N)cc32)CCC[C@@]2(CN(c3cc(C(F)(F)F)no3)C(=O)O2)C1` [Example 37, 1-({(5S,7S)-7-methyl-2-oxo-3-[3-(trifluoromethyl)-5-isoxazolyl]-1-oxa-3-azaspiro[4.5]dec-7-yl}methyl)-1H-benzimidazole-6-carbonitrile], 10 to 50 nM. Under `CC(F)(F)c1cc(N2C[C@@]3(CCC[C@](C)(Cn4cnc5ccc(C#N)cc54)C3)OC2=O)on1` [Example 45, 1-(((5S,7S)-3-(3-(1,1-difluoroethyl)isoxazol-5-yl)-7-methyl-2-oxo-1-oxa-3-azaspiro[4.5]decan-7-yl)methyl)-1H-benzo[d]imidazole-6-carbonitrile] stands 0.1 to 10 nM; under `Cc1ccc(-n2cc(CN3C[C@@]4(CCC[C@H](Cn5cnc6ccc(C#N)cc65)C4)OC3=O)nn2)cc1` [Example 91, 1-[((5S,7S)-3-{[1-(4-methylphenyl)-1H-1,2,3-triazol-4-yl]methyl}-2-oxo-1-oxa-3-azaspiro[4.5]dec-7-yl)methyl]-1H-benzimidazole-6-carbonitrile], 50 to 500 nM; under `CCOc1cc(C)c(N2C[C@@]3(CCC[C@](C)(Cn4cnc5ccc(C#N)cc54)C3)OC2=O)nn1` [Example 24, 1-(((5S,7S)-3-(6-Ethoxy-4-methylpyridazin-3-yl)-7-methyl-2-oxo-1-oxa-3-azaspiro[4.5]decan-7-yl)methyl)-1H-benzo[d]imidazole-6-carbonitrile], 0.1 to 10 nM. For `COc1ccc(N2C[C@@]3(CCC[C@](C)(Cn4cnc5ccc(C#N)cc54)C3)OC2=O)nc1` [Example 135, 1-({(5S,7S)-7-methyl-3-[5-(methyloxy)-2-pyridinyl]-2-oxo-1-oxa-3-azaspiro[4.5]dec-7-yl}methyl)-1H-benzimidazole-6-carbonitrile], the IC50 is 50 to 500 nM.

Take `Cn1cc(-c2cccc(CN3C[C@@]4(CCC[C@](C)(Cn5cnc6ccc(C#N)cc65)C4)OC3=O)n2)cn1` [Example 161, 1-(((5S,7S)-7-methyl-3-((6-(1-methyl-1H-pyrazol-4-yl)pyridin-2-yl)methyl)-2-oxo-1-oxa-3-azaspiro[4.5]decan-7-yl)methyl)-1H-benzo[d]imidazole-6-carbonitrile]: the IC50 was in the range of 0.1 to 10 nM.

Take `N#Cc1ccc2ncn(C[C@H]3CCC[C@]4(C3)CN(Cc3cn(-c5cccc(Cl)c5)nn3)C(=O)O4)c2c1` [Example 90, 1-[((5S,7S)-3-{[1-(3-chlorophenyl)-1H-1,2,3-triazol-4-yl]methyl}-2-oxo-1-oxa-3-azaspiro[4.5]dec-7-yl)methyl]-1H-benzimidazole-6-carbonitrile]: the IC50 was in the range of 0.1 to 10 nM. In the case of `COc1cc(C)c(N2C[C@@]3(CCC[C@](C)(Cn4cnc5ccc(C#N)cc54)C3)OC2=O)cn1` [Example 15, 1-(((5S,7S)-3-(6-Methoxy-4-methylpyridin-3-yl)-7-methyl-2-oxo-1-oxa-3-azasbiro[4.5]decan-7-yl)methyl)-1H-benzo[d]imidazole-6-carbonitrile] it was 0.1 to 10 nM.

(Values after US9187464B2, “TRPV4 antagonists” (GlaxoSmithKline Intellectual Property (No. 2) Limited, priority 2011, dated 2015).)
